Laboratory results taken from patent publication US9284306B2, “(R)-Nifuratel, its use for the treatment of infections and synthesis of (R) and (S)-Nifuratel” (POLICHEM SA, priority 2012, dated 2016).
≈ marks a conversion by molar mass, not a printed value. Read-outs that look alike come from different tables or passages of the source.

Assays:
Gardnerella vaginalis = test: MIC, agar dilution; assay type: cell-based
Description: (§1) Micrococcus pyogenes (ATCC 11631), Bacillus subtilis (ATCC 11774), Lactobacillus iners (ATCC 55195), Escherichia coli (ATCC 11775), Proteus mirabilis (ATCC 14153), Klebsiella pneumoniae (ATCC 10031), Shigella sonnei (ATCC 11060), Neisseria gonorrhoeae (ATCC 19424), Salmonella typhimurium (ATCC 14028) Salmonella paratyphi B (ATCC 10719), Helicobacter pylori (ATCC 43504) and several strains of Atopobium vaginae and Gardnerella vaginalis.
(§2) Strains were prepared from freeze-dried pellets. An isolation of the suspensions (to test the strains purity) and a strains massive growth were made by streaking microbial suspensions on agar media. The bacterial colonies on agar plates were collected with 3-5 mL of specific liquid medium+15% glycerol and then the aliquots were frozen at −80° C.
(§3) Compounds Minimal Inhibitory Concentration (MIC) was determined through broth micro-dilution susceptibility testing with a method developed following the National Committee for Clinical Laboratory Standards (CLSI) M07-A8 and M11-A7 references. Assays were carried out in specific media (Table 3). The tests were performed either following the broth microdilution assay or the agar dilution assay. Compounds stock solutions were made at 12.8 mg/mL in DMSO 100%. A series of twofold dilutions were then prepared using the strain specific broth. Final concentrations were from 0.125 μg/mL to 64 μg/mL at 1% DMSO. MIC is defined as the lowest concentration of antibacterial agent which prevent any visible growth.

Atopobium vaginae = test: MIC, agar dilution; assay type: cell-based; details: Fannyhessea vaginae
Description: as §1, §2, §3

[1] = rat, in vivo
Description: The pharmacokinetic profile of S- and R-nifuratel was assessed after intravenous administration (2 mg/kg) and oral gavage (15 mg/kg) in male rats.

in vivo [2] = details: male, rat, iv, 2 mg/kg
[3] = test system: Staphylococcus aureus (MRSA); test: MIC, broth microdilution; assay type: cell-based
Description: as §2, §3

[4] = test system: Micrococcus pyogenes ATCC 11631; test: MIC, broth microdilution; assay type: cell-based; details: Staphylococcus aureus, ATCC11631; broth microdilution; Micrococcus pyogenes ATCC 11631; read-out: MIC
Description: as §1, §2, §3

[5] = test system: Klebsiella pneumonia ATCC 10031; test: MIC, broth microdilution; assay type: cell-based; details: Klebsiella pneumoniae, ATCC10031; broth microdilution; Klebsiella pneumonia ATCC 10031; read-out: MIC
Description: as §1, §2, §3

[6] = test system: Proteus mirabilis ATCC 14153; test: MIC, broth microdilution; assay type: cell-based; details: ATCC14153; broth microdilution; Proteus mirabilis ATCC 14153; read-out: MIC
Description: as §1, §2, §3

[7] = test system: Escherichia coli ATCC 11775; test: MIC, broth microdilution; assay type: cell-based; details: ATCC11775; broth microdilution; Escherichia coli ATCC 11775; read-out: MIC
Description: as §1, §2, §3

[8] = test system: Lactobacillus iners ATCC 55195; test: MIC, broth microdilution; assay type: cell-based; details: ATCC55195; broth microdilution; Lactobacillus iners ATCC 55195; read-out: MIC
Description: as §1, §2, §3

[9] = test system: Salmonella paratyphi B ATCC 10719; test: MIC, broth microdilution; assay type: cell-based; details: Salmonella enterica
Description: as §1, §2, §3

[10] = test system: Shigella sonnei ATCC 11060; test: MIC, broth microdilution; assay type: cell-based; details: ATCC11060
Description: as §1, §2, §3

[11] = test system: Helicobacter pylori ATCC 43504; test: MIC, broth microdilution; assay type: cell-based; details: ATCC43504
Description: as §1, §2, §3

[12] = test system: Neisseria gonorrhoeae ATCC 19424; test: MIC, broth microdilution; assay type: cell-based; details: ATCC19424; broth microdilution; Neisseria gonorrhoeae ATCC 19424; read-out: MIC
Description: as §1, §2, §3

[13] = test system: Salmonella typhimurium ATCC 14028; test: MIC, broth microdilution; assay type: cell-based; details: Salmonella enterica; broth microdilution; Salmonella typhimurium ATCC 14028; read-out: MIC
Description: as §1, §2, §3

Bacillus subtilis = test: MIC, broth microdilution; assay type: cell-based; details: broth microdilution, read-out: MIC
Description: as §1, §2, §3

in vivo [14] = details: male, rat, po, 15 mg/kg
[15] = test system: Gram positive and negative organisms; test: Antimicrobial activity (MIC), overall comparison; assay type: cell-based; details: Tables 3 and 4, overall
Description: as §1, §3

[16] = ATCC14018, agar dilution, Gardnerella vaginalis ATCC 14018, read-out: MIC
[17] = agar dilution, Gardnerella vaginalis C2, read-out: MIC
[18] = agar dilution, Gardnerella vaginalis D2, read-out: MIC
[19] = agar dilution, Gardnerella vaginalis E2, read-out: MIC
[20] = agar dilution, Gardnerella vaginalis G2, read-out: MIC
[21] = agar dilution, Gardnerella vaginalis H2, read-out: MIC
[22] = agar dilution, Gardnerella vaginalis J2, read-out: MIC
[23] = agar dilution, Gardnerella vaginalis K2, read-out: MIC
[24] = CCUG38953, agar dilution, Atopobium vaginae CCUG 38953, read-out: MIC
[25] = CCUG42099, agar dilution, Atopobium vaginae CCUG 42099, read-out: MIC
[26] = CCUG43049, agar dilution, Atopobium vaginae CCUG 43049, read-out: MIC
[27] = CCUG44156, agar dilution, Atopobium vaginae CCUG 44156, read-out: MIC
[28] = CCUG48515, agar dilution, Atopobium vaginae CCUG 48515, read-out: MIC
[29] = CCUG55226, agar dilution, Atopobium vaginae CCUG 55226, read-out: MIC
[30] = CCUG55227, agar dilution, Atopobium vaginae CCUG 55227, read-out: MIC

## CSC[C@H]1CN(/N=C/c2ccc([N+](=O)[O-])o2)C(=O)O1 [R-nifuratel, (R)-Nifuratel]
Gardnerella vaginalis; [16]
  MIC: 1 µg/mL (≈ 3.51 µM)
Gardnerella vaginalis; [17]
  MIC: 4 µg/mL (≈ 14 µM)
Gardnerella vaginalis; [18]
  MIC: 4 µg/mL (≈ 14 µM)
Gardnerella vaginalis; [19]
  MIC: 1 µg/mL (≈ 3.51 µM)
Gardnerella vaginalis; [20]
  MIC: 2 µg/mL (≈ 7.01 µM)
Gardnerella vaginalis; [21]
  MIC: 1 µg/mL (≈ 3.51 µM)
Gardnerella vaginalis; [22]
  MIC: 2 µg/mL (≈ 7.01 µM)
Gardnerella vaginalis; [23]
  MIC: 4 µg/mL (≈ 14 µM)
Atopobium vaginae; [24]
  MIC: 0.25 µg/mL (≈ 0.876 µM)
Atopobium vaginae; CCUG39382
  MIC: 0.125 µg/mL (≈ 0.438 µM)
Atopobium vaginae; [25]
  MIC: 0.25 µg/mL (≈ 0.876 µM)
Atopobium vaginae; [26]
  MIC: 0.25 µg/mL (≈ 0.876 µM)
Atopobium vaginae; CCUG44061, agar dilution, Atopobium vaginae CCUG 44061, read-out: MIC
  MIC: 0.25 µg/mL (≈ 0.876 µM)
Atopobium vaginae; [27]
  MIC: 0.25 µg/mL (≈ 0.876 µM)
Atopobium vaginae; [28]
  MIC: 0.5 µg/mL (≈ 1.75 µM)
Atopobium vaginae; [29]
  MIC: 1 µg/mL (≈ 3.51 µM)
Atopobium vaginae; [30]
  MIC: 0.25 µg/mL (≈ 0.876 µM)
[1]
  overall pharmacokinetic profile: best pharmacokinetic profile
In vivo [2]
  AUC(0-inf): 750 ng·h/mL
  AUC(0-t): 740 ng·h/mL
  Clast: 43 ng/mL
  Cmax: 4190 ng/mL
  MRT: 7 min
  Tlast: 75 min
  Tmax: 2 min
  VSR: 0.4 L/kg
  clearance: 49 mL/min/kg
  half-life: 11 min
[3]
  MIC: 2 µg/mL (≈ 7.01 µM)
[4]
  MIC: 2 µg/mL (≈ 7.01 µM)
[5]
  MIC: 2 µg/mL (≈ 7.01 µM)
[6]
  MIC: 8 µg/mL (≈ 28 µM)
[7]
  MIC: 1 µg/mL (≈ 3.51 µM)
[8]
  MIC: 16 µg/mL (≈ 56.1 µM)
[9]
  MIC: 1 µg/mL (≈ 3.51 µM)
[10]
  MIC: 1 µg/mL (≈ 3.51 µM)
[11]; Helicobacter pylori
  MIC: 0.125 µg/mL (≈ 0.438 µM)
[12]
  MIC: 0.25 µg/mL (≈ 0.876 µM)
[13]
  MIC: 2 µg/mL (≈ 7.01 µM)
Bacillus subtilis
  MIC: 0.25 µg/mL (≈ 0.876 µM)
In vivo [14]
  AUC(0-t): 66.8 ng·h/mL
  Clast: 3 ng/mL
  Cmax: 34 ng/mL
  MRT: 82.4 h
  Tlast: 480 min
  Tmax: 5 min
  half-life: 236 min
[15]
  antimicrobial profile compared to nifuratel racemate or (S)-nifuratel: better antimicrobial profile

## CSC[C@@H]1CN(/N=C/c2ccc([N+](=O)[O-])o2)C(=O)O1 [S-Nifuratel, (S)-Nifuratel]
Gardnerella vaginalis; [16]
  MIC: 2 µg/mL (≈ 7.01 µM)
Gardnerella vaginalis; [17]
  MIC: 8 µg/mL (≈ 28 µM)
Gardnerella vaginalis; [18]
  MIC: 2 µg/mL (≈ 7.01 µM)
Gardnerella vaginalis; [19]
  MIC: 2 µg/mL (≈ 7.01 µM)
Gardnerella vaginalis; [20]
  MIC: 1 µg/mL (≈ 3.51 µM)
Gardnerella vaginalis; [21]
  MIC: 2 µg/mL (≈ 7.01 µM)
Gardnerella vaginalis; [22]
  MIC: 4 µg/mL (≈ 14 µM)
Gardnerella vaginalis; [23]
  MIC: 4 µg/mL (≈ 14 µM)
Atopobium vaginae; [24]
  MIC: 0.25 µg/mL (≈ 0.876 µM)
Atopobium vaginae; CCUG39382, agar dilution, Atopobium vaginae CCUG 39382, read-out: MIC
  MIC: 0.25 µg/mL (≈ 0.876 µM)
Atopobium vaginae; [25]
  MIC: 0.5 µg/mL (≈ 1.75 µM)
Atopobium vaginae; [26]
  MIC: 0.5 µg/mL (≈ 1.75 µM)
Atopobium vaginae; CCUG44061
  MIC: 0.125 µg/mL (≈ 0.438 µM)
Atopobium vaginae; [27]
  MIC: 0.25 µg/mL (≈ 0.876 µM)
Atopobium vaginae; [28]
  MIC: 1 µg/mL (≈ 3.51 µM)
Atopobium vaginae; [29]
  MIC: 1 µg/mL (≈ 3.51 µM)
Atopobium vaginae; [30]
  MIC: 0.5 µg/mL (≈ 1.75 µM)
In vivo [2]
  AUC(0-inf): 167 ng·h/mL
  AUC(0-t): 166 ng·h/mL
  Clast: 5 ng/mL
  Cmax: 1150 ng/mL
  MRT: 4 min
  Tlast: 53 min
  Tmax: 2 min
  VSR: 0.9 L/kg
  clearance: 203 mL/min/kg
  half-life: 8 min
[3]
  MIC: 4 µg/mL (≈ 14 µM)
[4]
  MIC: 1 µg/mL (≈ 3.51 µM)
[5]
  MIC: 4 µg/mL (≈ 14 µM)
[6]
  MIC: 8 µg/mL (≈ 28 µM)
[7]
  MIC: 2 µg/mL (≈ 7.01 µM)
[8]
  MIC: 32 µg/mL (≈ 112 µM)
[9]
  MIC: 4 µg/mL (≈ 14 µM)
[10]
  MIC: 4 µg/mL (≈ 14 µM)
[11]; broth microdilution, Helicobacter pylori ATCC 43504, read-out: MIC
  MIC: 0.25 µg/mL (≈ 0.876 µM)
[12]
  MIC: 0.5 µg/mL (≈ 1.75 µM)
[13]
  MIC: 8 µg/mL (≈ 28 µM)
Bacillus subtilis
  MIC: 1 µg/mL (≈ 3.51 µM)
In vivo [14]
  AUC(0-t): 32.6 ng·h/mL
  Clast: 3 ng/mL
  Cmax: 6 ng/mL
  Tlast: 480 min
  Tmax: 5 min
